These results are taken from patent publication US8664213B2, “Spiro bicyclic diamine derivatives as HIV attachment inhibitors” (priority 2011, dated 2014).

This experiment concerns HIV-1 LAI. Put plainly: Single-round infectious luciferase reporter virus (HIV-1 LAI envelope) infection of MT2 cells. It counts as cell-based. The note with it: Human immunodeficiency virus 1, MT2, 72 h. The source says:
• Virus Production— • Human embryonic Kidney cell line, 293T (HEK 293T), was propagated in Dulbecco's Modified Eagle Medium (Invitrogen, Carlsbad, Calif.) containing 10% fetal Bovine serum (FBS, Sigma, St. Louis, Mo.). The human T-cell leukemia cell MT2 (AIDS Research and Reference Reagent Program, Cat. 237) was propagated in RPMI 1640 (Invitrogen, Carlsbad, Calif.) containing 10% fetal bovine serum (FBS, Hyclone, Logan, Utah) • Virus Infection— • Single-round infectious reporter virus was produced by co-transfecting HEK 293T cells with plasmide expressing the HIV-1 LAI envelope along with a plasmid containing an HIV-1 LAI proviral cDNA with the envelope gene replaced by a firefly luciferase reporter gene (Chen et al, Ref 41). Transfections were performed using lipofectAMINE PLUS reagent as described by the manufacturer (Invitrogen, Carlsbad, Calif.).
• 1. MT2 cells were plated in black, 384 well plates at a cell density of 5×10^3 cells per well in 25 μl RPMI 1640 containing 10% FBS. • 2. Compound (diluted in dimethylsulfoxide and growth medium) was added to cells at 12.5 μl/well, so that the final assay concentration would be ≦50 nM. • 3. 12.5 μl of single-round infectious reporter virus in Dulbecco's Modified Eagle Medium was added to the plated cells and compound at an approximate multiplicity of infection (MOI) of 0.01, resulting in a final volume of 50 μl per well. • 4. Virus-infected cells were incubated at 37 degrees Celsius, in a CO2 incubator, and harvested 72 h after infection. • 5. Viral infection was monitored by measuring luciferase expression in the infected cells using a luciferase reporter gene assay kit (Steady-Glo, Promega, Madison, Wis.) as described by the manufacturer. Luciferase activity was then quantified by measuring luminescence using an EnVision Multilabel Plate Readers (PerkinElmer, Waltham, Mass.). • 6. The percent inhibition for each compound was calculated by quantifying the level of luciferase expression in cells infected in the presence of each compound as a percentage of that observed for cells infected in the absence of compound and subtracting such a determined value from 100. • 7. An EC50 provides a method for comparing the antiviral potency of the compounds of this disclosure. The effective concentration for fifty percent inhibition (EC50) was calculated with the Microsoft Excel Xlfit curve fitting software. For each compound, curves were generated from percent inhibition calculated at 10 different concentrations by using a four parameter logistic model (model 205). Table 1 is the key for the data in Table 2.

Where [1] appears, read: read-out: EC50 Group from Table 1.

Molecules are shown by their SMILES. pEC50: −log10 of the molar value. Where two headings read alike, the source gives them in different places.

Consider `O=C(C(=O)N1CCC2(CCN(c3nnnn3-c3ccccc3)C2)C1)c1c[nH]c2c(-n3ccnn3)ncc(F)c12` (centres unmarked) [Compound 1001, 1-(4-fluoro-7-(1H-1,2,3-triazol-1-yl)-1H-pyrrolo[2,3-c]pyridin-3-yl)-2-(7-(1-phenyl-1H-tetrazol-5-yl)-2,7-diazaspiro[4.4]nonan-2-yl)ethane-1,2-dione], for which the pEC50 – broadly, the EC50 on a negative log10 scale, so that one unit is a factor of ten – was 8.25. Also, the negative logarithm of the EC50 (pEC50) under setting [1] is more than 6.30.
On to `COc1cnc(-n2cnc(C)n2)c2[nH]cc(C(=O)C(=O)N3CCC4(CCN(c5nnnn5-c5ccccc5)C4)C3)c12` (centres unmarked) [Compound 1002, 1-(4-methoxy-7-(3-methyl-1H-1,2,4-triazol-1-yl)-1H-pyrrolo[2,3-c]pyridin-3-yl)-2-(7-(1-phenyl-1H-tetrazol-5-yl)-2,7-diazaspiro[4.4]nonan-2-yl)ethane-1,2-dione], for which the pEC50 under setting [1] was more than 6.30.
Same read-out and setting: the value for `COc1cnc(-n2cnc(C)n2)c2[nH]cc(C(=O)C(=O)N3CCC4(CCN(Cc5ccccc5)C4)C3)c12` (centres unmarked) [Compound 2002] was less than 6.30; that for `O=C(C(=O)N1CCC2(CCN(C(=O)c3ccccc3)C2)C1)c1c[nH]c2c(-n3ccnn3)ncc(F)c12` (centres unmarked) [Compound 2003] was less than 6.30.
Take `COc1cnc(-n2cnc(C)n2)c2[nH]cc(C(=O)C(=O)N3CCC4(CCN(C(=O)c5ccccc5)C4)C3)c12` (centres unmarked) [Compound 2004]: the negative-log EC50 (pEC50) under setting [1] is less than 6.30.
`COc1cnc(-n2cnc(C)n2)c2[nH]cc(C(=O)C(=O)N3CC4(C3)CN(c3nnnn3-c3ccccc3)C4)c12` [Compound 4001, 1-(4-methoxy-7-(3-methyl-1H-1,2,4-triazol-1-yl)-1H-pyrrolo[2,3-c]pyridin-3-yl)-2-(6-(1-phenyl-1H-tetrazol-5-yl)-2,6-diazaspiro[3.3]heptan-2-yl)ethane-1,2-dione] showed a pEC50 of 6.66. The negative-log EC50 (pEC50) under setting [1] was more than 6.30.
